Patent US20220125745A1, “PHARMACEUTICAL COMPOSITION FOR CO-ADMINISTRATION OF ACIDOSIS-INDUCING DRUG” (HAIM BIO CO., LTD., priority 2018, published 2022)
Like-named read-outs stand apart in the source and are kept apart here.

Legend:
[1] = system: A549 cells (cancer cells); experiment: Lactate assay (luminescence) in A549 cells, candidate substance alone or combined with a substance that causes lactic acidosis; type: cell-based; settings: A549; for activity at 50 µM: Homo sapiens
Protocol: (§1) To identify the effects of administration of the candidate substances for lactic acidosis treatment as described in Example 1 in combination with the above-mentioned substances that cause lactic acidosis, A549 cells (cancer cells) or L132 cells (normal cells) were respectively seeded in 96- or 24-well plates at a concentration of 1×10^4 or 3×10^5 cells/well, and incubation was performed overnight. Administration of the candidate substance for acidosis treatment in combination with the substance that causes lactic acidosis was performed and incubation was further performed for 24 hours. For the candidate substances for acidosis treatment, each substance was administered at a uniform concentration of 50 μM; and for the substances that cause lactic acidosis, metformin was administered at 1 to 100 μM, isoniazid was administered at 1 to 500 μM, berberine was administered at 10 μM, linezolid was administered at 200 μM, and phenformin was administered at 100 μM. All substances were dissolved in dimethyl sulfoxide (DMSO, Sigma-Aldrich Corporation, St. Louis, Mo., USA), and the substances to be administered in combination were administered simultaneously. Subsequently, 50 μl of the cell culture solution obtained by being diluted with Dulbecco's Phosphate-Buffered Saline (DPBS; Wellgene, Korea), and 50 μl of the lactate assay reaction buffer (Promega, Madison, Wis., USA) were mixed and the mixture was added in a 96-well plate. Reaction was allowed to proceed at room temperature for 1 hour. Then, luminescence was measured with a spectrophotometer (Synergy HTX Multi-Reader; BioTek, Winooski, Vt., USA). At the same time, the number of cells in each sample was measured with a cell viability analysis kit (Cell Counting Kit-8; Dojindo Molecular Technologies, Inc., Kumamoto, Japan), and calculation was performed so that the lactic acid measurement value in each sample could be compared with that in the negative control for the same number of cells.

[2] = system: L132 cells (normal cells); experiment: Lactate assay (luminescence) in L132 cells, candidate substance alone or combined with a substance that causes lactic acidosis; type: cell-based; settings: L132; for activity at 50 µM: Homo sapiens
Protocol: as §1

[3] = candidate 50 μM + berberine 10 μM, relative to berberine alone (PC)
[4] = candidate 50 μM + linezolid 200 μM, relative to linezolid alone (PC)
[5] = candidate 50 μM + phenformin 100 μM, relative to phenformin alone (PC)
[6] = candidate 50 μM alone, no berberine, 24 h, vs negative control, mean ± SEM, read-out: Luminescence intensity (%), Berberine (10 μM) −
[7] = candidate 50 μM alone, no linezolid, 24 h, vs negative control, mean ± SEM, read-out: Luminescence intensity (%), Linezolid (200 μM) −
[8] = candidate 50 μM alone, no phenformin, 24 h, vs negative control, mean ± SEM, read-out: Luminescence intensity (%), Phenformin (100 μM) −
[9] = candidate 50 μM alone, no berberine, 24 h, vs negative control, mean ± SEM
[10] = candidate 50 μM alone, no linezolid, 24 h, vs negative control, mean ± SEM
[11] = candidate 50 μM alone, no phenformin, 24 h, vs negative control, mean ± SEM

SMILES | Lactic acid value vs. PC (%) [1, 3] [%] | Lactic acid-decreasing rate vs. PC (%) [1, 3] [%] | Lactic acid value vs. PC (%) [1, 4] [%] | Lactic acid-decreasing rate vs. PC (%) [1, 4] [%] | Lactic acid value vs. PC (%) [1, 5] [%] | Lactic acid-decreasing rate vs. PC (%) [1, 5] [%] | activity at 50 µM [1, 6] [%] | activity at 50 µM [1, 7] [%] | activity at 50 µM [1, 8] [%] | activity at 50 µM [2, 6] [%] | activity at 50 µM [2, 7] [%] | activity at 50 µM [2, 8] [%] | Lactic acid value vs. PC (%) [2, 3] [%] | Lactic acid-decreasing rate vs. PC (%) [2, 3] [%] | Lactic acid value vs. PC (%) [2, 4] [%] | Lactic acid-decreasing rate vs. PC (%) [2, 4] [%] | Lactic acid value vs. PC (%) [2, 5] [%] | Lactic acid-decreasing rate vs. PC (%) [2, 5] [%] | further results
C#CCN(C)Cc1ccccc1 [Pargyline] | 101.89 | −1.89 | 98.24 | 1.76 | 95.59 | 4.41 | 95.68 ± 0.7 | 95.68 ± 0.7 | 95.68 ± 0.7 | 96.1 ± 1.32 | 96.1 ± 1.32 | 96.1 ± 1.32 | 101.56 | −1.56 | 88.70 | 11.30 | 100.88 | −0.88 | –
O=CC(=O)c1ccccc1 [Phenylglyoxal] | 90.18 | 9.82 | 82.74 | 17.26 | 89.61 | 10.39 | 97.3 ± 1.03 | 97.3 ± 1.03 | 97.3 ± 1.03 | 93.7 ± 1.34 | 93.7 ± 1.34 | 93.7 ± 1.34 | 90.06 | 9.94 | 88.89 | 11.11 | 96.12 | 3.88 | –
C=C(OP(=O)([O-])O)C(=O)O.O.[Na+] [Phospho(enol)pyruvic acid monosodium salt hydrate] | 90.07 | 9.93 | 92.96 | 7.04 | 94.91 | 5.09 | – | – | – | – | – | – | 93.05 | 6.95 | 89.30 | 10.70 | 91.45 | 8.55 | Luminescence intensity (%), Berberine (10 μM) − [1, 9]: 100.07 ± 1.80^ %; Luminescence intensity (%), Linezolid (200 μM) − [1, 10]: 100.07 ± 1.80^ %; Luminescence intensity (%), Phenformin (100 μM) − [1, 11]: 100.07 ± 1.80^ %; Luminescence intensity (%), Berberine (10 μM) − [2, 9]: 94.55 ± 1.37 %; Luminescence intensity (%), Linezolid (200 μM) − [2, 10]: 94.55 ± 1.37 %; Luminescence intensity (%), Phenformin (100 μM) − [2, 11]: 94.55 ± 1.37 %
